Results published in article PMC5770468, “Cardiac glycoside/aglycones inhibit HIV-1 gene expression by a mechanism requiring MEK1/2-ERK1/2 signaling” (Scientific Reports, 2018).
Like-named read-outs stand apart in the source and are kept apart here.

Tests used:
[1] = test system: HIV-1 (Gag) gene expression; assay: HIV-1 (Gag) gene expression in HeLa rtTA-HIV-ΔMls cells, p24CA ELISA dose response; format: cell-based, HIV-1 (LAI); conditions: for IC50: read-out: IC50 (nM) HeLa rtTA-HIV-ΔMls
Procedure: Drug/compounds were tested for effects on HIV-1 gene expression using inducible Tet-ON HIV-1 cell lines [HeLa rtTA-HIV-ΔMls or rtTA-HIV(Gag-GFP)] containing a HIV-1 (LAI) provirus activatable by Dox or tetracycline transactivator (tTA)[69]. The rtTA-HIV-ΔMls provirus was modified and used as previously reported[9]–[11],[70]. The rtTA-HIV(Gag-GFP) provirus was generated by deletion of the PR and RT coding regions within pol and insertion of GFP to the 3′ of gag, creating GFP fused to the C-terminal of Gag. After 4 h of drug/compound treatment, HIV-1 gene expression was activated with Dox (2 μg/mL) or tTA (described below). Equal concentrations of DMSO were present in each experiment. After ~20 h, cells and media were harvested to monitor the effects of drug/compound treatments as described below. HIV-1 gene expression was quantified via p24^CA ELISA or monitoring Gag-GFP fluorescence in cells as described below. In parallel, cell viability of treatments were assessed by XTT assay (Sigma-Aldrich, #TOX2).
Drug/compounds were purchased from Sigma (Digoxin, #D6003; Digitoxin, #D5878; Digoxigenin, #D9026; Digitoxigenin, #D9404; Ouabain, #O3125; Bufalin, #S961175; Cinobufagin, #C1272; and Anisomycin, #A9789) and derivatives of convallatoxin were synthesized from C. Lingwood’s lab of the Hospital for Sick Children (convallatoxin, peruvoside, RIDK-34, -36, -20, -21, -27, and -28). […] Recombinant human EGF was from Invitrogen (#PHG0314). Chemical structures were drawn in ChemSketch (ACD/Labs).
To monitor HIV-1 gene expression or replication, Gag release into cell culture supernatants were assayed by ELISA using a p24^CA antigen capture assay kit (AIDS & Cancer Virus Program, NCI-Frederick, Frederick, MD USA). Media harvested from HIV clinical isolates were diluted ~10 fold (or as necessary) prior to performing this assay. For analysis of HIV-1 and SR protein expression (and phosphorylation states with calf intestinal alkaline phosphatase treatments), cells were lysed and analyzed by western blot as previously outlined. Phosphatase inhibitors (e.g. 10 mM sodium fluoride, 2 mM sodium orthovanadate) were added to solutions requiring phospho protein analyses. An anti-chicken NKA antibody (α6F, #a6F–c, Developmental Studies Hybridoma Bank, The University of Iowa, contributed by Douglas M. Fambrough, The Johns Hopkins University) was used as specified to detect NKA α1- and β1-subunits across species. […] Activation of MAPKs was determined by western blot quantitation and calculation of phospho/total protein levels. […] Images were exported as TIF files for assembly, rotation, and equal brightness/contrast adjustments in ImageJ or Microsoft Powerpoint. Some lanes were cropped and rearranged from the same blot/gel as indicated. In representative gel/blot sets, samples were electrophoresed from the same experiment as controls, resolved simultaneously on identically cast gel(s), transferred to same PVDF (by either wet electrophoretic or by Bio-Rad Trans-Blot® Turbo Transfer System), and detected at same time. Marked locations of molecular weight (MW) standards are shown on the left as a reference. […] SUnSET analysis of total cellular protein synthesis. HeLa rtTA-HIV-ΔMls cells were cultured in the presence/absence of compound and pathway inhibitor (if any) and Dox induced for ~24 h as already described, then treated with puromycin (10 μg/mL, Sigma-Aldrich, #P8833) for 30 min to label nascent proteins prior to harvest. As control, 10 µM of cycloheximide (Sigma-Aldrich, #C4849) was added to some cells prior to puromycin treatment. Cells were subsequently washed, whole cell lysates prepared, and proteins quantified by western blot using an anti-puromycin antibody (EMD Millipore, #anti-12D10) as described above. Transfection of plasmid DNA into cells.

HeLa rtTA-HIV-ΔMls cells = assay: In vitro therapeutic index (CC20/IC50) in HeLa rtTA-HIV-ΔMls cells; format: cell-based, human
Text: Without median toxic dose (TD50) and half-maximal effective concentration (EC50) data available to calculate TIs (in vivo) from HIV patients treated with CSs, we determined the following TIs for each cell type treated with a CS (summarized in Supplementary Table S1): in vitro TIs from HeLa rtTA-HIV-ΔMls cells using CC20/IC50 (instead of CC50/IC50), in vitro TIs from 24ST1NLESG cells using CC50/IC50, and ex vivo TIs from HIV-infected PBMCs using CC50/IC50 (at day 14 of culture approximated from available cell viability trends for CC50s of Supplementary Fig. S13 and inferred near maximal IC50s).
Supplementary Table S1. Comparison of the in vitro (IVTI) and ex vivo therapeutic indices (EVTIs) of CSs and their impact on the expression of essential HIV-1 proteins.
Notes: data for CC20, CC50, and IC50s for each drug/compound were estimated from dose response curves in Figures 1-2, Supplementary Table S1, Supplementary Figures S2, S5, and S13, and Wong et al.
">" means the estimate has not been accurately determined but is greater than the highest concentration […]
"( )" indicates preliminary data that was not shown. aCC20 instead of CC50 was estimated from dose response curves and used for calculation of IVTIs. bCells were treated at ~IC90of a CS.
(1 picture or pasted object on this page, not shown here)

HIV-1 Gag-GFP expression = assay: Recovery of HIV-1 Gag-GFP expression by pathway inhibitors in the presence of CSs, HeLa rtTA-HIV(Gag-GFP) cells; format: cell-based; conditions: 12 μM U0126; 5.5 μM Selumetinib; 10 μM LY294002; 5 µM KB-R7943; CSs at ~IC80
Procedure: Figure 5 Effect of modulating NKA expression, [Ca^2+]i, and PI3K-AKT on HIV-1 gene expression. Depletion of the NKA perturbs HIV-1 RNA processing (n ≥ 3, mean, s.e.m.). HeLa rtTA-HIV(Gag-GFP) cells were transduced with two shRNAs (E6/E10) to knockdown expression of the NKA α1 subunit and their effect on HIV-1 gene expression analyzed. After positive selection of cells with puromycin for 24–48 h, HIV-1 expression was Dox induced for 20 h, and cells harvested for analyses. Total mRNA (and protein) was isolated from cells, reverse transcribed, and analyzed by qRT-PCR and data normalized to β-actin (a,c). Results are shown relative to Stuffer (+). (a) Expression levels of NKA α1 mRNAs assayed by qRT-PCR. (b) HIV-1 Gag expression assayed by p24^CA ELISA of cell lysates (40 μg). (c) Accumulation of HIV-1 US (black), SS (white), and MS (gray) mRNAs quantified by qRT-PCR. (d–g) CSs suppress HIV-1 gene expression independent of intracellular Ca^2+ flux/signaling and PI3K-AKT activation. HeLa rtTA-HIV(Gag-GFP) cells were pre-treated with either a chelator of [Ca^2+]i (5 µM BAPTA-AM, [Ca2+]ii), inhibitors of NCX Ca^2+-entry (5 µM KB-R7943, NCXi) or PI3K (10 μM LY294002, PI3Ki), or untreated (DMSO, no pathway inhibitor) for ~2 h prior to treatment with ~IC80s of CSs or DMSO for 4 h, and Dox induced for ~20 h. The pathway used by a CS to inhibit HIV-1 expression was determined by monitoring for recovery of Gag-GFP expression by measuring GFP fluorescence in cell lysates (and initially by plate scans of live/fixed cells, Supplementary Fig. S7a and S8c). (d) Levels of [Ca^2+]i measured by Fura Red AM™ (n ≥ 4, mean, s.e.m.). (e–f) Quantification of Gag-GFP expression by reducing SDS-PAGE in lysates (35 μg) of cells which were pre-treated with/without KB-R7943 (n ≥ 3–4 mean, s.e.m.). […] (g) Graph quantitating Gag expression by p24^CA ELISA in lysates of cells (35 μg) that were pre-treated with/without LY294002 (n ≥ 3, mean, s.e.m.). Statistical comparisons in (a–g) were performed as illustrated (black/gray dashed lines) or described in Methods.
Figure 6 CSs control HIV-1 gene expression through intracellular signaling. HeLa rtTA-HIV(Gag-GFP) cells were pre-treated with/without pathway inhibitor overnight (~15 h) and treated with ~IC80s of CSs. […] Graphs quantifying the activation level (phospho/total protein) of each MAP/MAPK by western blot. […] The signaling pathway(s) used by a CS to inhibit HIV-1 expression was determined by detecting Gag-GFP fluorescence in cell lysates (~35 μg) by reducing SDS-PAGE after pre-treatment of cells with a MEK1/2 (12 μM U0126, white), p38α/β/β2 (15 μM SB203580/p38i, gray), or JNK1/2/3 (1.25 μM SP600125/JNKi, hatched) inhibitor (n ≥ 5–7, 4–8, and 3–7, resp., mean, s.e.m.). […]

[2] = Human immunodeficiency virus 1, HeLa
[3] = Human immunodeficiency virus 1, HeLa, read-out: IC90, HIV-1 (Gag) gene expression

Structure (SMILES): CC(=O)O[C@H]1[C@H]2O[C@]23[C@@H]2CC[C@@H]4C[C@@H](O)CC[C@]4(C)[C@H]2CC[C@]3(C)[C@H]1c1ccc(=O)oc1 [Cinobufagin]
- IC50 [1, 2]: 24 nM
- IC90 [1, 3]: 40 nM
- IC80 ([1]; Human immunodeficiency virus 1, HeLa, read-out: ~IC80 (approximate concentration used in experiments)): ~40 nM
- IC90 ([1]; Human immunodeficiency virus 1, HeLa, read-out: ~IC90 (approximate concentration used in experiments)): ~40 nM
- better anti-HIV-1 activity than digoxin ([1]; cell based assays (HeLa rtTA-HIV-ΔMls)): 1.9 fold
- better in vitro TI than digoxin (HeLa rtTA-HIV-ΔMls cells): 2.3 fold

Structure (SMILES): C[C@@H]1O[C@@H](O[C@H]2CC[C@]3(C=O)[C@H]4CC[C@]5(C)[C@@H](C6=CC(=O)OC6)CC[C@]5(O)[C@@H]4CC[C@]3(O)C2)[C@H](O)[C@H](O)[C@H]1O [Convallatoxin]
- better anti-HIV-1 activity than digoxin [1]: 3.8 fold
- IC50 ([1]; Human immunodeficiency virus 1, HeLa, HIV-1 Gag expression, p24CA ELISA, 4 h drug then Dox ~20 h): 12 nM
- IC90 ([1]; Human immunodeficiency virus 1, HeLa rtTA-HIV-ΔMls cells, read-out: IC90, HIV-1 (Gag) gene expression): 24 nM
- better in vitro TI than digoxin (HeLa rtTA-HIV-ΔMls cells): 6.8 fold

Structure (SMILES): O=c1cc(N2CCOCC2)oc2c(-c3ccccc3)cccc12 [LY294002]
- reversal of CS inhibition of HIV-1 Gag-GFP expression by pathway inhibitor pre-treatment (HIV-1 Gag-GFP expression): did not reverse

Structure (SMILES): CO[C@H]1[C@H](O)[C@H](O[C@H]2CC[C@@]3(C=O)[C@H](CC[C@@H]4[C@@H]3CC[C@]3(C)[C@@H](C5=CC(=O)OC5)CC[C@]43O)C2)O[C@@H](C)[C@@H]1O [Peruvoside]
- reduced potency relative to convallatoxin ([1]; HeLa rtTA-HIV-ΔMls cells): 10 fold
- IC50 [1, 2]: 80 nM
- IC90 [1, 3]: 250 nM

Structure (SMILES): CC1OC(OC2CC(O)C3(CO)C4C(O)CC5(C)C(C(=CC(=O)O)CO)CCC5(O)C4CCC3(O)C2)C(O)C(O)C1O (stereo not drawn) [RIDK-21]
- anti-HIV-1 activity ([1]; HeLa rtTA-HIV-ΔMls cells): reduced/no anti-HIV-1 activity
- IC50 ([1]; HIV-1 Gag expression, p24CA ELISA, 4 h drug then Dox ~20 h): > 100 nM

Structure (SMILES): Cn1cnc2c(F)c(Nc3ccc(Br)cc3Cl)c(C(=O)NOCCO)cc21 [Selumetinib]
- reversal of CS inhibition of HIV-1 Gag-GFP expression by pathway inhibitor pre-treatment (HIV-1 Gag-GFP expression): partially rescuing

Structure (SMILES): N#CC(=C(/N)Sc1ccccc1N)/C(C#N)=C(/N)Sc1ccccc1N [U0126]
- reversal of CS inhibition of HIV-1 Gag-GFP expression by pathway inhibitor pre-treatment (HIV-1 Gag-GFP expression): partially restored
